From patent publication US11274268B2, “Detergent compositions for removing heavy metals and formaldehyde” (FNG RESEARCH CO., LTD., priority 2017, dated 2022)

Tests used:
[1] = test system: human skin; assay: Skin irritation test of active ingredient (patch method, CTFA guidelines); type: in vivo; settings: for Test result (number of subject) (+) / Test result (number of subject) (−) / Test result (number of subject) (++) / Test result (number of subject) (±): 20 subjects, 24 hours patch; for Test result (number of subject) (+): apparent reddening; for Test result (number of subject) (−): no erythema or symptoms; for Test result (number of subject) (++): reddened and swollen; for Test result (number of subject) (±): slightly reddish; for Degree of irritation: Equation 1
Description: A total of 20 people (10 men and 10 women in their 20s and 30s) were tested for skin irritation using the patch method according to the guidelines of CTFA (The Cosmetic, Toiletry & Fragrance Association, Inc. Washington, D.C.).
A filter paper disk was placed in an 8 mm diameter, 10 panels of pin chamber.
After 24 hours, the pin chamber was removed, and skin conditions were visually observed. The degree and grade for skin irritation were calculated according to the following Equation 1, and the results are shown in Table 3 below.
[Criteria for Skin Irritation]
(−): No erythema or particularly no symptoms; (±): slightly reddish than the periphery; (+): Apparent reddening than periphery; (++): More reddened and swollen than periphery.
[Grade for Skin Irritation]
Degree of irritation 0-0.1: Grade I (unstimulated);
Degree of irritation 0.11-0.3: Grade II (weakly stimulated);
Degree of irritation 0.31-0.5: Grade III (moderately stimulated);
Degree of irritation 0.51 or more: Grade IV (strongly stimulated)

[2] = Formaldehyde removing ability test (GC); settings: 2.0% formaldehyde solution, 3 molar equivalents, room temperature

## C1CNCCNCCNCCN1 [Cyclen, 1,4,7,10-tetraazacyclododecane]
[1]; content 0.1%
  Grade: I (Degree of irritation 0-0.1: Grade I (unstimulated))
  Test result (number of subject) (+): 0
  Test result (number of subject) (−): 20
  Test result (number of subject) (++): 0
  Test result (number of subject) (±): 0
  Degree of irritation: 0
[1]; content 0.5%
  Grade: I (Degree of irritation 0-0.1: Grade I (unstimulated))
  Test result (number of subject) (+): 0
  Test result (number of subject) (−): 20
  Test result (number of subject) (++): 0
  Test result (number of subject) (±): 0
  Degree of irritation: 0
[1]; content 1.0%
  Grade: II (Degree of irritation 0.11-0.3: Grade II (weakly stimulated))
  Test result (number of subject) (+): 1
  Test result (number of subject) (−): 18
  Test result (number of subject) (++): 0
  Test result (number of subject) (±): 1
  Degree of irritation: 0.15
[2]; 30 min
  Area (formaldehyde, GC): 0.181 mAU * min
[2]; 180 min
  Area (formaldehyde, GC): 0 mAU * min
[2]; Initial
  Area (formaldehyde, GC): 0.305 mAU * min

## O=C(O)CN(CCN(CCN(CC(=O)O)CC(=O)O)CC(=O)O)CCN(CC(=O)O)CC(=O)O [Embodiment 1, 3,6,9,12-tetrakis(carboxymethyl)-3,6,9,12-tetraazatetradecanedioic Acid]
[1]; content 0.1%
  Grade: I (Degree of irritation 0-0.1: Grade I (unstimulated))
  Test result (number of subject) (+): 0
  Test result (number of subject) (−): 20
  Test result (number of subject) (++): 0
  Test result (number of subject) (±): 0
  Degree of irritation: 0
[1]; content 0.5%
  Grade: I (Degree of irritation 0-0.1: Grade I (unstimulated))
  Test result (number of subject) (+): 0
  Test result (number of subject) (−): 19
  Test result (number of subject) (++): 0
  Test result (number of subject) (±): 1
  Degree of irritation: 0.05
[1]; content 1.0%
  Grade: II (Degree of irritation 0.11-0.3: Grade II (weakly stimulated))
  Test result (number of subject) (+): 0
  Test result (number of subject) (−): 16
  Test result (number of subject) (++): 0
  Test result (number of subject) (±): 4
  Degree of irritation: 0.20
[2]; 30 min
  Area (formaldehyde, GC): 0.170 mAU * min
[2]; 180 min
  Area (formaldehyde, GC): 0 mAU * min
[2]; Initial
  Area (formaldehyde, GC): 0.305 mAU * min

## O=C(O)c1ccc(N(CCN(CCN(c2ccc(C(=O)O)cc2)c2ccc(C(=O)O)cc2)c2ccc(C(=O)O)cc2)CCN(c2ccc(C(=O)O)cc2)c2ccc(C(=O)O)cc2)cc1 [Embodiment 2, 4,4′,4″,4′″-(((ethane-1,2-diylbis((4-carboxyphenyl)azanediyl))bis(ethane-2,1-diyl))bis(azanetriyl))tetrabenzoic Acid]
[1]; content 0.1%
  Grade: I (Degree of irritation 0-0.1: Grade I (unstimulated))
  Test result (number of subject) (+): 0
  Test result (number of subject) (−): 20
  Test result (number of subject) (++): 0
  Test result (number of subject) (±): 0
  Degree of irritation: 0
[1]; content 0.5%
  Grade: I (Degree of irritation 0-0.1: Grade I (unstimulated))
  Test result (number of subject) (+): 0
  Test result (number of subject) (−): 20
  Test result (number of subject) (++): 0
  Test result (number of subject) (±): 0
  Degree of irritation: 0
[1]; content 1.0%
  Grade: I (Degree of irritation 0-0.1: Grade I (unstimulated))
  Test result (number of subject) (+): 0
  Test result (number of subject) (−): 19
  Test result (number of subject) (++): 0
  Test result (number of subject) (±): 1
  Degree of irritation: 0.05
[2]; 30 min
  Area (formaldehyde, GC): 0.168 mAU * min
[2]; 180 min
  Area (formaldehyde, GC): 0 mAU * min
[2]; Initial
  Area (formaldehyde, GC): 0.305 mAU * min

## O=C(O)c1ccc(N(CCN(CCN(c2ccc(C(=O)O)o2)c2ccc(C(=O)O)o2)c2ccc(C(=O)O)o2)CCN(c2ccc(C(=O)O)o2)c2ccc(C(=O)O)o2)o1 [Embodiment 4, 5,5′,5″,5′″-(((ethane-1,2-diylbis((5-carboxyfuran-2-yl)azanediyl))bis(ethane-2,1-diyl))bis(azanetriyl))tetrakis(furan-2-carboxylic Acid)]
[1]; content 0.1%
  Grade: I (Degree of irritation 0-0.1: Grade I (unstimulated))
  Test result (number of subject) (+): 0
  Test result (number of subject) (−): 20
  Test result (number of subject) (++): 0
  Test result (number of subject) (±): 0
  Degree of irritation: 0
[1]; content 0.5%
  Grade: I (Degree of irritation 0-0.1: Grade I (unstimulated))
  Test result (number of subject) (+): 0
  Test result (number of subject) (−): 20
  Test result (number of subject) (++): 0
  Test result (number of subject) (±): 0
  Degree of irritation: 0
[1]; content 1.0%
  Grade: I (Degree of irritation 0-0.1: Grade I (unstimulated))
  Test result (number of subject) (+): 0
  Test result (number of subject) (−): 19
  Test result (number of subject) (++): 0
  Test result (number of subject) (±): 1
  Degree of irritation: 0.05
[2]; 30 min
  Area (formaldehyde, GC): 0.173 mAU * min
[2]; 180 min
  Area (formaldehyde, GC): 0 mAU * min
[2]; Initial
  Area (formaldehyde, GC): 0.305 mAU * min

## O=C(O)CN1CCN(CC(=O)O)CCN(CC(=O)O)CCN(CC(=O)O)CC1 [Embodiment 5, 2,2′,2″,2′″-(1,4,7,10-tetraazacyclododecane-1,4,7,10-tetrayl)tetraacetic Acid]
[1]; content 0.1%
  Grade: I (Degree of irritation 0-0.1: Grade I (unstimulated))
  Test result (number of subject) (+): 0
  Test result (number of subject) (−): 20
  Test result (number of subject) (++): 0
  Test result (number of subject) (±): 0
  Degree of irritation: 0
[1]; content 0.5%
  Grade: I (Degree of irritation 0-0.1: Grade I (unstimulated))
  Test result (number of subject) (+): 0
  Test result (number of subject) (−): 20
  Test result (number of subject) (++): 0
  Test result (number of subject) (±): 0
  Degree of irritation: 0
[1]; content 1.0%
  Grade: I (Degree of irritation 0-0.1: Grade I (unstimulated))
  Test result (number of subject) (+): 0
  Test result (number of subject) (−): 19
  Test result (number of subject) (++): 0
  Test result (number of subject) (±): 1
  Degree of irritation: 0.05
[2]; 30 min
  Area (formaldehyde, GC): 0.179 mAU * min
[2]; 180 min
  Area (formaldehyde, GC): 0 mAU * min
[2]; Initial
  Area (formaldehyde, GC): 0.305 mAU * min

## O=C(O)c1ccc(N2CCN(c3ccc(C(=O)O)cc3)CCN(c3ccc(C(=O)O)cc3)CCN(c3ccc(C(=O)O)cc3)CC2)cc1 [Embodiment 6, 4,4′,4″,4′″-(1,4,7,10-tetraazacyclododecane-1,4,7,10-tetrayl)tetrabenzoic Acid]
[1]; content 0.1%
  Grade: I (Degree of irritation 0-0.1: Grade I (unstimulated))
  Test result (number of subject) (+): 0
  Test result (number of subject) (−): 20
  Test result (number of subject) (++): 0
  Test result (number of subject) (±): 0
  Degree of irritation: 0
[1]; content 0.5%
  Grade: I (Degree of irritation 0-0.1: Grade I (unstimulated))
  Test result (number of subject) (+): 0
  Test result (number of subject) (−): 20
  Test result (number of subject) (++): 0
  Test result (number of subject) (±): 0
  Degree of irritation: 0
[1]; content 1.0%
  Grade: I (Degree of irritation 0-0.1: Grade I (unstimulated))
  Test result (number of subject) (+): 0
  Test result (number of subject) (−): 19
  Test result (number of subject) (++): 0
  Test result (number of subject) (±): 1
  Degree of irritation: 0.05
[2]; 30 min
  Area (formaldehyde, GC): 0.183 mAU * min
[2]; 180 min
  Area (formaldehyde, GC): 0 mAU * min
[2]; Initial
  Area (formaldehyde, GC): 0.305 mAU * min

## O=C(O)c1cncc(N2CCN(c3cncc(C(=O)O)c3)CCN(c3cncc(C(=O)O)c3)CCN(c3cncc(C(=O)O)c3)CC2)c1 [Embodiment 7, 5,5′,5″,5′″-(1,4,7,10-tetraazacyclododecane-1,4,7,10-tetrayl)tetranicotinic Acid]
[1]; content 0.1%
  Grade: I (Degree of irritation 0-0.1: Grade I (unstimulated))
  Test result (number of subject) (+): 0
  Test result (number of subject) (−): 20
  Test result (number of subject) (++): 0
  Test result (number of subject) (±): 0
  Degree of irritation: 0
[1]; content 0.5%
  Grade: I (Degree of irritation 0-0.1: Grade I (unstimulated))
  Test result (number of subject) (+): 0
  Test result (number of subject) (−): 20
  Test result (number of subject) (++): 0
  Test result (number of subject) (±): 0
  Degree of irritation: 0
[1]; content 1.0%
  Grade: I (Degree of irritation 0-0.1: Grade I (unstimulated))
  Test result (number of subject) (+): 0
  Test result (number of subject) (−): 20
  Test result (number of subject) (++): 0
  Test result (number of subject) (±): 0
  Degree of irritation: 0
[2]; 30 min
  Area (formaldehyde, GC): 0.181 mAU * min
[2]; 180 min
  Area (formaldehyde, GC): 0 mAU * min
[2]; Initial
  Area (formaldehyde, GC): 0.305 mAU * min
